Data published in PubChem BioAssay (NCI).
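These data come from cells grown in 96-well plates and exposed to compound for 48 hours at five concentrations. The concentration for 50% growth inhibition is given as GI50. Definition used: TGI = concentration required for complete inhibition of growth.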

Experiments:
Experiment in all cases: NCI tumour cell line growth inhibition, 48 h
[1] = tested on: SNB-78 CNS
[2] = tested on: SK-OV-3 ovarian
[3] = tested on: M14 melanoma
[4] = tested on: LOX IMVI melanoma
[5] = tested on: NCI-H522 lung
[6] = tested on: MOLT-4 leukemia
[7] = tested on: RXF 393 renal
[8] = tested on: HCT-15 colon
[9] = tested on: NCI-H23 lung
[10] = tested on: SF-268 CNS
[11] = tested on: SNB-19 CNS
[12] = tested on: SK-MEL-5 melanoma
[13] = tested on: TK-10 renal
[14] = tested on: UACC-62 melanoma
[15] = tested on: IGROV1 ovarian
[16] = tested on: SK-MEL-28 melanoma
[17] = tested on: OVCAR-4 ovarian
[18] = tested on: U251 CNS
[19] = tested on: ACHN renal
[20] = tested on: SNB-75 CNS
[21] = tested on: SF-539 CNS
[22] = tested on: CCRF-CEM leukemia
[23] = tested on: SK-MEL-2 melanoma
[24] = tested on: KM12 colon
[25] = tested on: MALME-3M melanoma
[26] = tested on: SN12C renal
[27] = tested on: OVCAR-3 ovarian
[28] = tested on: K-562 leukemia
[29] = tested on: HL-60(TB) leukemia
[30] = tested on: DMS 273 small cell lung
[31] = tested on: HCT-116 colon
[32] = tested on: LXFL 529 NSCLC
[33] = tested on: 786-0 renal
[34] = tested on: SF-295 CNS
[35] = tested on: UO-31 renal
[36] = tested on: M19-MEL melanoma
[37] = tested on: OVCAR-8 ovarian
[38] = tested on: HT29 colon
[39] = tested on: HOP-18 NSCLC
[40] = tested on: NCI-H460 lung
[41] = tested on: UACC-257 melanoma
[42] = tested on: NCI-H226 lung
[43] = tested on: A549 NSCLC
[44] = tested on: OVCAR-5 ovarian
[45] = tested on: NCI/ADR-RES ovarian
[46] = tested on: T-47D breast
[47] = tested on: DU-145 prostate
[48] = tested on: HS 578T breast
[49] = tested on: COLO 205 colon
[50] = tested on: CAKI-1 renal
[51] = tested on: EKVX NSCLC
[52] = tested on: SW-620 colon
[53] = tested on: RPMI-8226 leukemia
[54] = tested on: MDA-N
[55] = tested on: HCC-2998 colon
[56] = tested on: A498 renal
[57] = tested on: MDA-MB-231 breast
[58] = tested on: HOP-92 NSCLC
[59] = tested on: BT-549 breast
[60] = tested on: MDA-MB-435
[61] = tested on: HOP-62 NSCLC
[62] = tested on: MCF7 breast
[63] = tested on: SR leukemia
[64] = tested on: PC-3 prostate

CC(=O)[O-].[Mn+3].[O-]c1ccccc1C=NCCNCCN=Cc1ccccc1[O-]
GI50 [1]: > 100 µM
TGI [1]: > 100 µM
GI50 [2]: > 100 µM
TGI [2]: > 100 µM
GI50 [3]: > 100 µM
TGI [3]: > 100 µM
GI50 [4]: > 100 µM
TGI [4]: > 100 µM
GI50 [5]: 66 µM
TGI [5]: > 100 µM
GI50 [6]: > 100 µM
TGI [6]: > 100 µM
GI50 [7]: > 100 µM
TGI [7]: > 100 µM
GI50 [8]: > 100 µM
TGI [8]: > 100 µM
GI50 [9]: > 100 µM
TGI [9]: > 100 µM
GI50 [10]: > 100 µM
TGI [10]: > 100 µM
GI50 [11]: > 100 µM
TGI [11]: > 100 µM
GI50 [12]: > 100 µM
TGI [12]: > 100 µM
GI50 [13]: > 100 µM
TGI [13]: > 100 µM
GI50 [14]: > 100 µM
TGI [14]: > 100 µM
GI50 [15]: > 100 µM
TGI [15]: > 100 µM
GI50 [16]: > 100 µM
TGI [16]: > 100 µM
GI50 [17]: > 100 µM
TGI [17]: > 100 µM
GI50 [18]: > 100 µM
TGI [18]: > 100 µM
GI50 [19]: > 100 µM
TGI [19]: > 100 µM
GI50 [20]: > 100 µM
TGI [20]: > 100 µM
GI50 [21]: > 100 µM
TGI [21]: > 100 µM
GI50 [22]: 86.1 µM
TGI [22]: > 100 µM
GI50 [23]: > 100 µM
TGI [23]: > 100 µM
GI50 [24]: > 100 µM
TGI [24]: > 100 µM
GI50 [25]: 58.1 µM
TGI [25]: > 100 µM
GI50 [26]: > 100 µM
TGI [26]: > 100 µM
GI50 [27]: > 100 µM
TGI [27]: > 100 µM
GI50 [28]: > 100 µM
TGI [28]: > 100 µM
GI50 [29]: > 100 µM
TGI [29]: > 100 µM
GI50 [30]: > 100 µM
TGI [30]: > 100 µM
GI50 [31]: > 100 µM
TGI [31]: > 100 µM
GI50 [32]: > 100 µM
TGI [32]: > 100 µM
GI50 [33]: > 100 µM
TGI [33]: > 100 µM
GI50 [34]: > 100 µM
TGI [34]: > 100 µM
GI50 [35]: > 100 µM
TGI [35]: > 100 µM
GI50 [36]: > 100 µM
TGI [36]: > 100 µM
GI50 [37]: > 100 µM
TGI [37]: > 100 µM
GI50 [38]: > 100 µM
TGI [38]: > 100 µM
GI50 [39]: > 100 µM
TGI [39]: > 100 µM
GI50 [40]: > 100 µM
TGI [40]: > 100 µM
GI50 [41]: > 100 µM
TGI [41]: > 100 µM
GI50 [42]: > 100 µM
TGI [42]: > 100 µM
GI50 [43]: > 100 µM
TGI [43]: > 100 µM

NN=C(CC(O)(C(F)(F)Cl)C(F)(F)Cl)CC(O)(C(F)(F)Cl)C(F)(F)Cl
TGI [2]: > 10 µM
TGI [3]: > 10 µM
TGI [44]: > 10 µM
TGI [4]: > 10 µM
TGI [5]: > 10 µM
TGI [6]: > 10 µM
TGI [45]: > 10 µM
TGI [46]: > 10 µM
TGI [47]: > 10 µM
TGI [7]: > 10 µM
TGI [8]: > 10 µM
TGI [48]: > 10 µM
TGI [9]: > 10 µM
TGI [49]: > 10 µM
TGI [50]: > 10 µM
TGI [10]: > 10 µM
TGI [51]: > 10 µM
TGI [11]: > 10 µM
TGI [12]: > 10 µM
TGI [13]: > 10 µM
TGI [52]: > 10 µM
TGI [14]: > 10 µM
TGI [15]: > 10 µM
TGI [53]: > 10 µM
TGI [16]: > 10 µM
TGI [17]: > 10 µM
TGI [18]: > 10 µM
TGI [19]: > 10 µM
TGI [20]: > 10 µM
TGI [21]: > 10 µM
TGI [54]: > 10 µM
TGI [22]: > 10 µM
TGI [23]: > 10 µM
TGI [24]: > 10 µM
TGI [55]: > 10 µM
TGI [56]: > 10 µM
TGI [25]: > 10 µM
TGI [57]: > 10 µM
TGI [58]: > 10 µM
TGI [26]: > 10 µM
TGI [27]: > 10 µM
TGI [28]: > 10 µM
TGI [29]: > 10 µM
TGI [31]: > 10 µM
TGI [59]: > 10 µM
TGI [33]: > 10 µM
TGI [60]: > 10 µM
TGI [34]: > 10 µM
TGI [61]: > 10 µM
TGI [62]: > 10 µM
TGI [63]: > 10 µM
TGI [64]: > 10 µM
TGI [37]: > 10 µM
TGI [38]: > 10 µM
TGI [40]: > 10 µM
TGI [41]: > 10 µM
TGI [42]: > 10 µM
TGI [43]: > 10 µM
